Values of other authors in US20170042147A1, “A miticide composition of prolonged action and its manufacturing process, a miticide strip and a procedure to control Varroa destructor mite” (COOP. DE TRABAJO APÍCOLA PAMPERO LTDA, priority 2014, published 2017).

Tested on: Varroa
Conditions: bee hives without brood; use in Europe

O=C(O)C(=O)O [Oxalic acid]
efficacy against Varroa: excellent efficacy
